Test: Phase 1 pharmacokinetic study of a single oral dose of 20 mg E4 monohydrate in female subjects with normal hepatic function and mild, moderate or severe hepatic impairment (plasma, LC-MS/MS, non-compartmental analysis)
Assay type: in vivo, human
Conditions: for AUC0-24 h, GM / AUC0-24 h, Mean / AUC0-24 h, Median / AUCinf, GM / AUCinf, Mean / AUCinf, Median / AUClast, GM / AUClast, Mean / AUClast, Median / Cmax, GM / Cmax, Mean / Cmax, Median / T1/2, GM / T1/2, Mean / T1/2, Median / Tmax, Median / λz, GM / λz, Mean / λz, Median: single oral dose 20 mg E4 monohydrate, plasma
Method: This was a Phase 1, multi-centre, open-label, PK, and safety study of a single oral dose of 20 mg E4 monohydrate in female subjects with normal hepatic function (Group 1), mild hepatic impairment (Group 2), moderate hepatic impairment (Group 3), and severe hepatic impairment (Group 4), as defined using the Child-Pugh classification at Screening.
The study consisted of an eligibility Screening period (within 28 days prior to study drug administration), an Assessment Period with in-house period and outpatient visits (including a single oral dose of 20 mg E4 on Day 1), and a follow up visit. All subjects were confined to the study site from Day-1 (the day before dosing) until Day 4 and returned to the site every day from Day 5 to Day 9. Alternatively, the subjects could stay for a prolonged in-house period in agreement with the Investigator. The follow-up visit occurred on Day 14 (+2 days).
All subjects arrived at the study site in the morning of Day-1 in a fasted state (no food for at least 8 h, water was allowed) to have the scheduled assessments performed in order to confirm eligibility as outlined in the inclusion and exclusion criteria (Section 2.3.1 and Section 2.3.2, respectively). In the morning of Day 1 following an overnight fast, the subjects received oral dosing of 20 mg E4 monohydrate and remained at the site. Study-related assessments were performed at time points indicated in the Schedule of Assessments in Table 2.
Serial blood sampling for PK assessments started on Day 1 and proceeded until Day 9 according to the Pharmacokinetic Sampling Schedule presented in Table 3.
Each enrolled subject was to receive a single oral dose of 20 mg of E4 (estetrol) as monohydrate as a film-coated tablet.
Study drug was administered to subjects in the morning after an overnight fast of at least 8 h.
Calculation of non-compartmental PK parameters were done using WinNonlin™ Professional, Version 6.3 or higher.
The primary PK parameters to be analyzed for E4 in plasma: • Cmax=maximum observed plasma concentration • AUCinf=area under the concentration-time curve (AUC) from time zero extrapolated to infinity
The analysis of E4 and the metabolites E4-3-glucuronide and E4-16-glucuronide in plasma samples were performed at the Bioanalytical Laboratory of the CRO using a validated liquid chromatography-mass spectrometry/mass spectrometry method.
Individual and mean plasma concentrations at each sampling time point for E4 are presented by listings and descriptive summary statistics including means, geometric means (GMs), medians, ranges, standard deviations (SD) and coefficients of variation (CV). Individual, mean and/or median concentrations per hepatic function group were plotted versus time on semilogarithmic scales.
PK parameters were calculated by non-compartmental analysis. PK parameters were analysed using descriptive statistics and are presented by hepatic function group.
Analysis of variance (ANOVA) were used to compare primary PK parameters of E4 (Cmax and AUCinf) between subjects with hepatic impairment and subjects with normal hepatic function in an exploratory approach, using the log-transformed value of each PK parameter as dependent variable, and the hepatic impairment group (normal, mild, moderate, and severe) as a fixed classification factor. Geometric least squares means were used to calculate the ratios of primary PK parameters for each hepatic impairment group to those in the control group, along with 90% confidence intervals (CIs).
Additionally, the impact of age and BMI on the effect of hepatic impairment were evaluated using an ANOVA model similar as the ANOVA model described above, but with the interaction between each factor and the hepatic impairment group included as an additional factor.
The relationship between log-transformed PK parameters (Cmax and AUCinf) and continuous parameters (albumin, total bilirubin, and prothrombin time) used for the Child-Pugh score was explored by a linear regression approach. […]

Question: Which results are given for `CC12CCC3c4ccc(OC5OC(C(=O)O)C(O)C(O)C5O)cc4CCC3C1C(O)C(O)C2O` (stereo not shown) [E4-3-glucuronide, estetrol-3-glucuronide]?
Answer: AUC0-24 h, GM (Mild hepatic impairment): 315.86 ng·h/mL; AUC0-24 h, Mean (Mild hepatic impairment): 322.40 ng·h/mL; AUC0-24 h, Median (Mild hepatic impairment): 302.66 ng·h/mL; AUCinf, GM (Mild hepatic impairment): 497.24 ng·h/mL; AUCinf, Mean (Mild hepatic impairment): 506.96 ng·h/mL; AUCinf, Median (Mild hepatic impairment): 483.73 ng·h/mL; AUClast, GM (Mild hepatic impairment): 473.28 ng·h/mL; AUClast, Mean (Mild hepatic impairment): 483.07 ng·h/mL; AUClast, Median (Mild hepatic impairment): 440.22 ng·h/mL; Cmax, GM (Mild hepatic impairment): 113.610 ng/mL; Cmax, Mean (Mild hepatic impairment): 118.113 ng/mL; Cmax, Median (Mild hepatic impairment): 114.000 ng/mL; T1/2, GM (Mild hepatic impairment): 23.130 h; T1/2, Mean (Mild hepatic impairment): 24.540 h; T1/2, Median (Mild hepatic impairment): 24.692 h; Tmax, Median (Mild hepatic impairment): 0.490 h; λz, GM (Mild hepatic impairment): 0.0300 h⁻¹; λz, Mean (Mild hepatic impairment): 0.0318 h⁻¹; λz, Median (Mild hepatic impairment): 0.0281 h⁻¹; AUC0-24 h, GM (Moderate hepatic impairment): 269.04 ng·h/mL; AUC0-24 h, Mean (Moderate hepatic impairment): 282.87 ng·h/mL; AUC0-24 h, Median (Moderate hepatic impairment): 299.08 ng·h/mL; AUCinf, GM (Moderate hepatic impairment): 363.25 ng·h/mL; AUCinf, Mean (Moderate hepatic impairment): 388.13 ng·h/mL; AUCinf, Median (Moderate hepatic impairment): 412.85 ng·h/mL; AUClast, GM (Moderate hepatic impairment): 311.58 ng·h/mL; AUClast, Mean (Moderate hepatic impairment): 336.84 ng·h/mL; AUClast, Median (Moderate hepatic impairment): 325.82 ng·h/mL; Cmax, GM (Moderate hepatic impairment): 111.990 ng/mL; Cmax, Mean (Moderate hepatic impairment): 122.863 ng/mL; Cmax, Median (Moderate hepatic impairment): 133.000 ng/mL; T1/2, GM (Moderate hepatic impairment): 14.390 h; T1/2, Mean (Moderate hepatic impairment): 17.084 h; T1/2, Median (Moderate hepatic impairment): 14.153 h; Tmax, Median (Moderate hepatic impairment): 1 h; λz, GM (Moderate hepatic impairment): 0.0500 h⁻¹; λz, Mean (Moderate hepatic impairment): 0.0560 h⁻¹; λz, Median (Moderate hepatic impairment): 0.0502 h⁻¹; AUC0-24 h, GM (Normal hepatic function): 279.86 ng·h/mL; AUC0-24 h, Mean (Normal hepatic function): 290.53 ng·h/mL; AUC0-24 h, Median (Normal hepatic function): 309.09 ng·h/mL; AUCinf, GM (Normal hepatic function): 458.11 ng·h/mL; AUCinf, Mean (Normal hepatic function): 485.88 ng·h/mL; AUCinf, Median (Normal hepatic function): 495.16 ng·h/mL; AUClast, GM (Normal hepatic function): 446.22 ng·h/mL; AUClast, Mean (Normal hepatic function): 474.51 ng·h/mL; AUClast, Median (Normal hepatic function): 485.66 ng·h/mL; Cmax, GM (Normal hepatic function): 68.240 ng/mL; Cmax, Mean (Normal hepatic function): 73.238 ng/mL; Cmax, Median (Normal hepatic function): 70.100 ng/mL; T1/2, GM (Normal hepatic function): 19.540 h; T1/2, Mean (Normal hepatic function): 20.112 h; T1/2, Median (Normal hepatic function): 18.583 h; Tmax, Median (Normal hepatic function): 0.500 h; λz, GM (Normal hepatic function): 0.0400 h⁻¹; λz, Mean (Normal hepatic function): 0.0364 h⁻¹; λz, Median (Normal hepatic function): 0.0373 h⁻¹; AUC0-24 h, GM (Severe hepatic impairment): 299.07 ng·h/mL; AUC0-24 h, Mean (Severe hepatic impairment): 314.97 ng·h/mL; AUC0-24 h, Median (Severe hepatic impairment): 264.88 ng·h/mL; AUCinf, GM (Severe hepatic impairment): 332.77 ng·h/mL; AUCinf, Mean (Severe hepatic impairment): 367.42 ng·h/mL; AUCinf, Median (Severe hepatic impairment): 305.49 ng·h/mL; AUClast, GM (Severe hepatic impairment): 325.76 ng·h/mL; AUClast, Mean (Severe hepatic impairment): 360.81 ng·h/mL; AUClast, Median (Severe hepatic impairment): 296.24 ng·h/mL; Cmax, GM (Severe hepatic impairment): 93.970 ng/mL; Cmax, Mean (Severe hepatic impairment): 96.250 ng/mL; Cmax, Median (Severe hepatic impairment): 91.550 ng/mL; T1/2, GM (Severe hepatic impairment): 7.710 h; T1/2, Mean (Severe hepatic impairment): 8.652 h; T1/2, Median (Severe hepatic impairment): 6.277 h; Tmax, Median (Severe hepatic impairment): 0.510 h; λz, GM (Severe hepatic impairment): 0.0900 h⁻¹; λz, Mean (Severe hepatic impairment): 0.1005 h⁻¹; λz, Median (Severe hepatic impairment): 0.1104 h⁻¹; time to primary peak of GM plasma concentrations (all groups): ≤ 1 h; Tmax was reached within (mild hepatic impairment): ≤ 2 h; time post dose until which concentrations remained above LLOQ in at least half of the subjects (mild hepatic impairment): 96 h; Tmax was reached within (moderate hepatic impairment): ≤ 2 h; time post dose until which concentrations remained above LLOQ in at least half of the subjects (moderate hepatic impairment): 48 h; time post dose until which concentrations remained above LLOQ in at least half of the subjects (normal hepatic function): 96 h; Tmax was reached within (normal hepatic function (due to an outlier)): ~ 6 h; Tmax was reached within (severe hepatic impairment): ≤ 1 h; time post dose until which concentrations remained above LLOQ in at least half of the subjects (severe hepatic impairment): 36 h

Reference: patent US20260207623A1, “USE OF ESTETROL IN HEPATICALLY IMPAIRED PATIENTS” (ESTETRA SRL, priority 2022, published 2026)
